Laboratory results as given in patent US7034046B2, “NR1H4 nuclear receptor binding compounds” (Phenex Pharmaceuticals AG, priority 2001, dated 2006).
Read-outs that look alike come from different tables or passages of the source.

Key:
FXR = biological target: T1, FXR (Homo sapiens, UniProt Q96RI1); test: FXR-mediated transactivation, luciferase reporter in stable HEK293FXR reporter cell line; format: cell-based; conditions: HEK293FXR reporter cells, 16 hours
T1 construct: expressed in transfected cells
T1 sequence (Q96RI1 1-472 isoform Q96RI1-2): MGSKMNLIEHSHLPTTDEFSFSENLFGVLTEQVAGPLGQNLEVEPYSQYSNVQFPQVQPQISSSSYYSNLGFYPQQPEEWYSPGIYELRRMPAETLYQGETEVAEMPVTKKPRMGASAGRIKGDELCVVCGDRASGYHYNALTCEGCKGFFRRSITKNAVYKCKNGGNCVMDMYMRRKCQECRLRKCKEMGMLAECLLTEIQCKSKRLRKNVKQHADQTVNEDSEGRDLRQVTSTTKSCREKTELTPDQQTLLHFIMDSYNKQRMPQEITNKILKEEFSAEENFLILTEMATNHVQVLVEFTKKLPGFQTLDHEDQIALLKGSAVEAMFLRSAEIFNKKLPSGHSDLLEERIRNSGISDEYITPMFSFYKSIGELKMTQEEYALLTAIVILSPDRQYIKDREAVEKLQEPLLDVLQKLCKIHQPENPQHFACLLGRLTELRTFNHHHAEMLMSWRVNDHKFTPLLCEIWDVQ
From the text: A compound according to the invention (experiments shown were done with MOLSTRUCTURE LN 0000006734; see Table 1 for structural formula) can mediate transactivation of FXR-mediated transcription in a HEK293 reporter cell line. […] The full length human FXR (accession U68233) and the full length human RXRα (accession P19793) were cloned into the […]30 applying the manufacturer protocols for the GatewayTM system (Invitrogen). The FXR response elements were cloned (upper case). [NT] ID NO. 5) was obtained from the human IBAB-P promoter (Grober et al 1999, JBC 274, pp. 29749-29754). A stable clone was selected and seeded at a density of 5×10^4 cells per well in 48 well plates. […] Variations of duplicate measurements are within 20%.

human FXR alpha (NR1H4) = biological target: T2, human FXR alpha (NR1H4) (Homo sapiens, UniProt Q96RI1); test: In vitro screening for FXR binding to coactivator TIF2 (LANCE TR-FRET); format: biochemical
T2 construct: human FXR alpha (NR1H4—(Acc. No:AF384555)) encoding amino acids 187–472; made in house; host or cells: E. coli BL21
T2 sequence (Q96RI1 187-472 isoform Q96RI1-2): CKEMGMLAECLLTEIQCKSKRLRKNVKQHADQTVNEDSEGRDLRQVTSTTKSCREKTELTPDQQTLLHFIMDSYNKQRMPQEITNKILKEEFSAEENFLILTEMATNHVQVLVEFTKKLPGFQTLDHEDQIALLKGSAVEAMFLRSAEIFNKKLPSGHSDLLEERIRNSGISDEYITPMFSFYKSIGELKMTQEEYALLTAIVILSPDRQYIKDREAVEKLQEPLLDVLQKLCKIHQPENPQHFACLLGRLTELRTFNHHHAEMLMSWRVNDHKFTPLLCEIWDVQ
T2 sequence (Q15596 548-878 partner limits assumed): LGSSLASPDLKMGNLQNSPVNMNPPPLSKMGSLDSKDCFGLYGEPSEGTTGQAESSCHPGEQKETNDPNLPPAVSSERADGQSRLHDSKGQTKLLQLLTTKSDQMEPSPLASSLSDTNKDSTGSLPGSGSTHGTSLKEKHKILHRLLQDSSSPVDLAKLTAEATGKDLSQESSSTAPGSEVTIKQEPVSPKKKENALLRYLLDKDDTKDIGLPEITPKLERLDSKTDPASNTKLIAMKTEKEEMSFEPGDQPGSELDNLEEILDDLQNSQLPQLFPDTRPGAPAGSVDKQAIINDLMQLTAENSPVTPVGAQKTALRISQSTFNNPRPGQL
From the text: For screening purposes a fragment of the open reading frame of human FXR alpha (NR1H4—(Acc. No:AF384555)) encoding amino acids 187–472 was amplified by standard RT PCR procedures (see FIGS. 2A and 2B; SEQ ID NO. 1 and 2). Starting material was total RNA derived from human liver. The resulting cDNA obtained after reverse transcription was subsequently cloned using the Gateway™ recombination technology (Invitrogen, USA) into the expression plasmid pDest15 (Invitrogen, USA). This construct was used to express a recombinant GST-FXR fusion protein in E.coli (BL21 strain). A pDEST 17 derivative clone harboring an additional sequence encoding amino acids 548–878 of human TIF2 (Acc. No: XM—011633 RefSeq) (see FIGS. 2C and 2D, SEQ ID NO. 3 and 4) was constructed using Gateway™ recombination technology (Invitrogen, USA) in order to obtain a construct which was used to express recombinant His-tagged TIF2 fragment could be expressed in E. coli. For E. coli expression of both constructs, plasmid DNA was transformed into chemically competent E. coli BL21 (Invitrogen, USA) and cells were grown to an OD600 of 0.4–0.7 before expression was induced by addition of 0.5 mM IPTG according instructions of the manufacturer (Invitrogen). After induction for 8 hours at 30° C. cells were harvested by centrifugation for 10 minutes at 5000×g. Fusion proteins were affinity purified using Glutathion sepharose (Pharmacia) or Ni-NTA Agarose (QIAGEN) according to the instructions of the respective manufacturer. Recombinant proteins were dialyzed against 20 mM Tris/HCL pH 7.9; 60 mM KCl; 5 mM MgCl2; 1 mM DTT, 0.2 mM PMSF; and 10% glycerol. The TIF2 fragment was subsequently biotinylated by addition of 40–120 μl of a biotinamidocaproate N-hydroxysuccinimide-ester (Sigma) solution (20 mg/ml in DMSO). Overhead rotating samples were incubated for two hours at room temperature. Unincorporated label was then separated using G25 Gel filtration chromatography (Pharmacia Biotech, Sweden). Protein containing fractions from the column were pooled and tested for activity in the assay as described below.
For screening of compound libraries as provided for by the methods shown below in the examples for substances which influence the FXR/Tif 2 interaction, the Perkin Elmer LANCE technology was applied. This method relies on the binding dependent energy transfer from a donor to an acceptor fluorophore attached to the binding partners of interest. For ease of handling and reduction of background from compound fluorescence LANCE technology makes use of generic fluorophore labels and time resolved detection (for detailed description See Hemmilä I, Blomberg K and Hurskainen P, Time-resolved resonance energy transfer (TR-FRET) principle in LANCE, Abstract of Papers Presented at the 3rd Annual Conference of the Society for Biomolecular Screening, Sep., California (1997)).
For screening, 20–200 ng of biotinylated Tif 2 fragment and 10–200 ng of GST-FXR fragment were combined with 0.5–2 nM LANCE Eu-(W1024) labeled anti-GST antibody (Perkin Elmer) and 0.5–2 μg of Highly fluorescent APC-labeled streptavidin (Perkin Elmer) in the presence of 50 μM of individual compounds to be screened in a total volume of 25 μl of 20 mM Tris/HCl pH 7.9; 60 mM KCl; 5 mM MgCl2; and 160 ng/μl BSA. DMSO content of the samples was kept below 4%. Samples were incubated for a minimum of 60 minutes in the dark at room temperature in FIA-Plates black 384well med. binding (Greiner).
The LANCE signal was detected by a Perkin Elmer VICTOR2V™ Multilabel Counter applying the detection parameters listed in Table 3, below. The results were visualized by plotting the ratio between the emitted light at 665 nm and at 615 nm. For every batch of recombinant proteins amount of proteins and labeling reagents giving the most sensitive detection of hits was determined individually by analysis of dose response curves for chenodeoxycholic acid.

[1] = average of multiple experiments, read-out: EC50 AVG

Row | EC50 (human FXR alpha (NR1H4); [1]) [nM] | EFFIC AVG (average efficacy, % activity relative to CDCA control agonist) (human FXR alpha (NR1H4)) [%] | agonist of the NR1H4 human nuclear receptor (human FXR alpha (NR1H4)) | Structure (SMILES) | further results
1 | 2600 | 134 | – | CC(C)c1onc(-c2c(Cl)cccc2Cl)c1COc1ccc2cc(C(=O)O)ccc2c1 [LN0000000169] | Luciferase reporter activity (FXR; 0.08 μM): 1630.0; Luciferase reporter activity (FXR; 0.4 μM): 2754.0; Luciferase reporter activity (FXR; 1 μM): 4600.0; Luciferase reporter activity (FXR; 2 μM): 5775.7; Luciferase reporter activity (FXR; 10 μM): 6829.3; Luciferase reporter activity (FXR; 50 μM): 13375.7
2 | 600 | 85 | – | CC(C)c1onc(-c2c(Cl)cccc2Cl)c1COc1ccc(Oc2ccc(C(=O)O)cc2)cc1 [LN0000006734] | Luciferase reporter activity (FXR; 0.08 μM): 2153.0; Luciferase reporter activity (FXR; 0.4 μM): 2991.5; Luciferase reporter activity (FXR; 1 μM): 5360.5; Luciferase reporter activity (FXR; 2 μM): 6330.5; Luciferase reporter activity (FXR; 10 μM): 8523.5; Luciferase reporter activity (FXR; 50 μM): 13309.5; EC50 (FXR; read-out: EC50 of dose-dependent transactivation of the reporter gene luciferase by FXR): ~1000 nM
3 | 720 | 108 | – | COC(=O)CCc1ccc(OCc2c(-c3c(Cl)cccc3Cl)noc2C(C)C)cc1 [LN0000006764] | –
4 | 430 | 115 | – | CC(C)c1onc(-c2c(Cl)cccc2Cl)c1COc1ccc(CCC(=O)O)cc1 [LN0000006765] | –
5 | 230 | 117 | – | CC(C)c1onc(-c2c(Cl)cccc2Cl)c1COc1ccc(OCC(=O)O)cc1 [LN0000006767] | –
6 | 50 | 100 | – | CC(C)c1onc(-c2c(Cl)cccc2Cl)c1COc1ccc(/C=C/C(=O)O)c(Cl)c1 [LN0000006772] | –
7 | – | – | – | CC(C)c1onc(-c2c(Cl)cccc2Cl)c1COc1ccc(OCC(=O)O)cc1 [formula (II)] | EC50 (human FXR alpha (NR1H4); read-out: EC50 at FXR (half-maximal effective concentration)): 230 nM
8 | – | – | active as agonist | CC(C)c1onc(-c2c(Cl)cccc2Cl)c1COc1ccc(Oc2ccc(C(=O)O)cc2)cc1 [formula III] | –
9 | – | – | active as agonist | CC(C)c1onc(-c2c(Cl)cccc2Cl)c1COc1ccc(CCC(=O)O)cc1 [formula IV] | –
10 | – | – | active as agonist | CC(C)c1onc(-c2c(Cl)cccc2Cl)c1COc1ccc(/C=C/C(=O)O)c(Cl)c1 [formula V] | –
